Source: the NIST ThermoML archive (doi:10.1021/je401036f)
Several values for one entry are separate records, joined by “and”; a condition that tells them apart may be missing. Equal entries are not always repeated.

Key:
[1] = refractive index (Na D-line) (dimensionless); conditions: 101.33 kPa, Liquid, Standard Abbe refractometry
[2] = 101 kPa, Liquid; for viscosity: Concentric cylinders viscometry; for mass density: Vibrating tube method
[3] = refractive index (Na D-line) (dimensionless); xn = mol fraction of the nth substance listed; conditions: 101 kPa, Liquid, Standard Abbe refractometry, x2 = 0
[4] = xn = mol fraction of the nth substance listed; conditions: 101 kPa, Liquid, x2 = 0; for viscosity: Concentric cylinders viscometry; for mass density: Vibrating tube method

CC(O)CN (stereo not given) [1-amino-2-propanol]
Conditions | mass density, [2] [kg/m3] | refractive index, [1] | viscosity, [2]
288.15 K | 964.544 | 1.45 | 43.7 mPa·s
293.15 K | 960.598 | 1.448 | 31.68 mPa·s
298.15 K | 956.618 | 1.446 | 23.54 mPa·s
303.15 K | 952.612 | 1.444 | 17.89 mPa·s and 17.9 mPa·s
308.15 K | 948.577 | 1.4419 | 13.88 mPa·s
313.15 K | 944.515 | 1.4399 | 10.96 mPa·s
318.15 K | 940.423 | 1.4378 | 8.798 mPa·s
323.15 K | 936.293 | 1.4358 | 7.166 mPa·s
328.15 K | 932.13 | 1.4337 | 5.915 mPa·s
333.15 K | 927.93 | 1.4315 | 4.986 mPa·s

CCC(C)O (stereo not given) [butan-2-ol]
Conditions | mass density, [2] [kg/m3] | refractive index, [1] | viscosity, [2] [mPa·s]
288.15 K | 810.524 | 1.3995 | 4.59
293.15 K | 806.487 | 1.3974 | 3.738
298.15 K | 802.373 | 1.3952 | 3.074
303.15 K | 798.174 | 1.393 | 2.552
308.15 K | 793.881 | 1.3907 | 2.144
313.15 K | 789.487 | 1.3883 | 1.818
318.15 K | 784.988 | 1.3859 | 1.558
323.15 K | 780.38 | 1.3835 | 1.348
328.15 K | 775.656 | 1.381 | 1.179
333.15 K | 770.82 | 1.3784 | 1.054

CCCCO [butan-1-ol] + CC(O)CN
Conditions | mass density, [4] [kg/m3] | refractive index, [3] | viscosity, [4] [mPa·s]
288.15 K | 813.353 | 1.4013 | 3.367
293.15 K | 809.564 | 1.3992 | 2.914
298.15 K | 805.752 | 1.3972 | 2.539
303.15 K | 801.912 | 1.3951 | 2.228
308.15 K | 798.039 | 1.393 | 1.962
313.15 K | 794.13 | 1.391 | 1.739
318.15 K | 790.18 | 1.3888 | 1.547
323.15 K | 786.179 | 1.3867 | 1.382
328.15 K | 782.125 | 1.3846 | 1.239
333.15 K | 778.012 | 1.3824 | 1.138

CCC(C)O (stereo not given) [butan-2-ol] + CC(O)CN
Conditions | mass density, [4] [kg/m3] | refractive index, [3] | viscosity, [4] [mPa·s]
288.15 K | 810.524 | 1.3995 | 4.59
293.15 K | 806.487 | 1.3974 | 3.738
298.15 K | 802.373 | 1.3952 | 3.074
303.15 K | 798.174 | 1.393 | 2.552
308.15 K | 793.881 | 1.3907 | 2.144
313.15 K | 789.487 | 1.3883 | 1.818
318.15 K | 784.988 | 1.3859 | 1.558
323.15 K | 780.38 | 1.3835 | 1.348
328.15 K | 775.656 | 1.381 | 1.179
333.15 K | 770.82 | 1.3784 | 1.054

CCCCO [butan-1-ol]
Conditions | mass density, [2] [kg/m3] | refractive index, [1] | viscosity, [2] [mPa·s]
288.15 K | 813.353 | 1.4013 | 3.367
293.15 K | 809.564 | 1.3992 | 2.914
298.15 K | 805.752 | 1.3972 | 2.539
303.15 K | 801.912 | 1.3951 | 2.228
308.15 K | 798.039 | 1.393 | 1.962
313.15 K | 794.13 | 1.391 | 1.739
318.15 K | 790.18 | 1.3888 | 1.547
323.15 K | 786.179 | 1.3867 | 1.382
328.15 K | 782.125 | 1.3846 | 1.239
333.15 K | 778.012 | 1.3824 | 1.138
